# Results: publication PMC9571063 (Molecules, 2022)
# Counter-ions that a name gives are not always drawn. Like-named read-outs stand apart in the source and are kept apart here.
# Columns and labels:
# HsDYRK1A = molecular target: T1, HsDYRK1A (Homo sapiens, UniProt Q13627); assay: ADP-Glo kinase assay; format: biochemical; settings: for remaining activity at 1 µM / remaining activity at 10 µM: n=2, read-out: % of residual activity Hs_DYRK1A; for IC50: 10 µM ATP, duplicate
# T1 construct: host or cells: Sf9 insect cells (baculovirus)
# MmCLK1 = molecular target: T2, MmCLK1 (Mus musculus, UniProt P22518); assay: ADP-Glo kinase assay; format: biochemical; settings: for remaining activity at 1 µM / remaining activity at 10 µM: n=2, read-out: % of residual activity Mm_CLK1; for IC50: mouse CLK1 orthologue, read-out: IC50 MmCLK1
# T2 construct: host or cells: bacteria
# Hs_CDK5/p25 = molecular target: T3, Hs_CDK5/p25 (Homo sapiens, UniProt Q00535); assay: ADP-Glo kinase assay, primary screen; format: biochemical; settings: n=2, read-out: % of residual activity Hs_CDK5/p25
# T3 construct: host or cells: bacteria
# Hs_CDK9/CyclinT = molecular target: T4, Hs_CDK9/CyclinT (Homo sapiens, UniProt P50750); assay: ADP-Glo kinase assay, primary screen; format: biochemical; settings: n=2, read-out: % of residual activity Hs_CDK9/CyclinT
# T4 construct: host or cells: Sf9 insect cells (baculovirus)
# Hs_PIM1 = molecular target: T5, Hs_PIM1 (Homo sapiens, UniProt P11309); assay: ADP-Glo kinase assay, primary screen; format: biochemical; settings: n=2, read-out: % of residual activity Hs_PIM1
# T5 construct: host or cells: Sf9 insect cells (baculovirus)
# Rn_DYRK1A = molecular target: T6, Rn_DYRK1A (Rattus norvegicus, UniProt Q63470); assay: ADP-Glo kinase assay, primary screen; format: biochemical; settings: n=2, read-out: % of residual activity Rn_DYRK1A
# T6 construct: host or cells: bacteria
# Hs_HASPIN = molecular target: T7, Hs_HASPIN (Homo sapiens, UniProt Q8TF76); assay: ADP-Glo kinase assay, primary screen; format: biochemical; settings: n=2, read-out: % of residual activity Hs_HASPIN
# T7 construct: host or cells: bacteria
# T7 sequence (Q8TF76 1-798): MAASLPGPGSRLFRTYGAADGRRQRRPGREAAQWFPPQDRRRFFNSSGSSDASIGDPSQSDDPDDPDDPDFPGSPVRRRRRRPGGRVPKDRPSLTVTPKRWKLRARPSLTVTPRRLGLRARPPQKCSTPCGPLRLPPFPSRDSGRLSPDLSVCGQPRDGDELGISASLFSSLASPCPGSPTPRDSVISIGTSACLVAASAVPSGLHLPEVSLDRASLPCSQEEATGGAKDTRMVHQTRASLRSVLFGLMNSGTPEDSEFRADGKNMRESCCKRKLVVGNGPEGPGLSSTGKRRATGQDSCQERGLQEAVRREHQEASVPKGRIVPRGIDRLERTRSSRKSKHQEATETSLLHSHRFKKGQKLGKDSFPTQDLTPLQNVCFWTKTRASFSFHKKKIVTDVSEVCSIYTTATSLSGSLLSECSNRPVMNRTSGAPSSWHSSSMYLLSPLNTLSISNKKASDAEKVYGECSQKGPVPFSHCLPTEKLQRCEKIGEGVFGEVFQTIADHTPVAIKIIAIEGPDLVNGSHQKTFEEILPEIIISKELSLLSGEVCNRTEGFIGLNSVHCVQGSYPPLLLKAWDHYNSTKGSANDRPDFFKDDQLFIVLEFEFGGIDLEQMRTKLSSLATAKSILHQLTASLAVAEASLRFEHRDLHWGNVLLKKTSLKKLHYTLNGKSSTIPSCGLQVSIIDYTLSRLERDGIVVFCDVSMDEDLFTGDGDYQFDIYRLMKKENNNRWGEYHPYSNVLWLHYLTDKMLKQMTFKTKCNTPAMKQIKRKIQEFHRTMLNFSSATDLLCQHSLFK
# Hs_GSK3β = molecular target: T8, Hs_GSK3β (Homo sapiens, UniProt P49841); assay: ADP-Glo kinase assay, primary screen; format: biochemical; settings: n=2, read-out: % of residual activity Hs_GSK3β
# T8 construct: host or cells: Sf9 insect cells (baculovirus)
# Hs_CK1ε = molecular target: T9, Hs_CK1ε (Homo sapiens, UniProt P49674); assay: ADP-Glo kinase assay, primary screen; format: biochemical; settings: n=2, read-out: % of residual activity Hs_CK1ε
# T9 construct: host or cells: Sf9 insect cells (baculovirus)
# [1] = cytotoxic assay, nuclei count (Hoechst, HCS); format: cell-based; settings: human, HuH7 cells (hepatocellular carcinoma); 48 h treatment; read-out: Cytotoxic studies IC50 HuH7
# [2] = cytotoxic assay, nuclei count (Hoechst, HCS); format: cell-based; settings: human, Caco-2 cells (colorectal adenocarcinoma); 48 h treatment; read-out: Cytotoxic studies IC50 Caco2
# [3] = cytotoxic assay, nuclei count (Hoechst, HCS); format: cell-based; settings: human, MDA-MB-231 cells (breast carcinoma); 48 h treatment; read-out: Cytotoxic studies IC50 MDA-MB-231
# [4] = cytotoxic assay, nuclei count (Hoechst, HCS); format: cell-based; settings: human, 48 h treatment
# Procedure: (§1) To complete our study, we performed a cytotoxicity screening of the 15 molecules, investigating 7 representative cancer cell lines. The compound’s effect on cell viability was evaluated on Huh-7 (hepatocellular carcinoma), CaCo2, HCT-116 (colorectal adenocarcinoma), MCF7, MDA-MB231, MDA-MB468 (breast carcinoma), PC3 (prostate carcinoma) and NCI-H727 (lung carcinoid). Human skin fibroblasts were used as reference for non-cancerous cells. Roscovitine, Doxorubicin and Taxol were used as positive controls. The cells were treated for 48 h with 25 µM compounds and fixed in cooled 90% ethanol/5% acetic acid for 20 min. The nuclei were stained with Hoechst 33342 and counted using HCS technology.
# (§2) HuH7, CaCo-2, MDA-MB-231, HCT116, PC3, MCF7 and NCI-H727 cancer cell lines were obtained from the ECACC collection (Porton Down, UK). Cells were grown at 37 °C, 5% CO2 in ECACC recommended media: DMEM for HuH7, MDA-MB-231 and fibroblast, EMEM for MCF7and CaCo-2, McCoy’s for HCT116 and RPMI for PC3 and NCI-H727. All culture media were supplemented with 10% of FBS, 1% of penicillin-streptomycin and 2 mM glutamine.
# (§3) Chemicals were solubilized in DMSO at a concentration of 10 mM (stock solution) and diluted in culture medium to the desired final concentrations.
# […] Cells were plated in 96 wells plates (4000 cells/well). Twenty-four hours after seeding, cells were exposed to chemicals. After 48 h of treatment, cells were washed in PBS and fixed in cooled 90% ethanol/5% acetic acid for 20 min and the nuclei were stained with Hoechst 33342 (B2261 Sigma). Image acquisition and analysis were performed using a CellomicsArrayScan VTI/HCS Reader (ThermoScientific, Waltham, MA, USA). The survival percentages were calculated as the percentage of cell number after compound treatment over cell number after DMSO treatment.
# [5] = cytotoxic assay, nuclei count (Hoechst, HCS); format: cell-based; settings: human, MCF7 cells (breast carcinoma); 48 h treatment; read-out: Cytotoxic studies IC50 MCF7
# Procedure: as §1, §2, §3
# (§4) The cytotoxic assay of chemical was performed at 25 µM. Cells were plated in 96 wells plates (4000 cells/well). Twenty-four hours after seeding, cells were exposed to chemicals. After 48 h of treatment, cells were washed in PBS and fixed in cooled 90% ethanol/5% acetic acid for 20 min and the nuclei were stained with Hoechst 33342 (B2261 Sigma). Image acquisition and analysis were performed using a CellomicsArrayScan VTI/HCS Reader (ThermoScientific, Waltham, MA, USA). The survival percentages were calculated as the percentage of cell number after compound treatment over cell number after DMSO treatment.
# [6] = cytotoxic assay, nuclei count (Hoechst, HCS); format: cell-based, human; settings: human, human skin fibroblasts (non-cancerous reference cells); 48 h treatment; some cells add low/moderate/high amplitude; read-out: Cytotoxic studies IC50 Fibroblasts
# Procedure: as §1, §2, §3, §4
# Human skin fibroblasts = assay: cytotoxic assay, nuclei count (Hoechst, HCS); format: cell-based; settings: summary of Table S2
# Procedure: as §1, §2, §3, §4
# [7] = HCT116 cells (colorectal adenocarcinoma), read-out: Cytotoxic studies IC50 HCT116
# [8] = MDA-MB-468 cells (breast carcinoma), read-out: Cytotoxic studies IC50 MDA-MB-468
# T2 sequence (P22518 whole entry): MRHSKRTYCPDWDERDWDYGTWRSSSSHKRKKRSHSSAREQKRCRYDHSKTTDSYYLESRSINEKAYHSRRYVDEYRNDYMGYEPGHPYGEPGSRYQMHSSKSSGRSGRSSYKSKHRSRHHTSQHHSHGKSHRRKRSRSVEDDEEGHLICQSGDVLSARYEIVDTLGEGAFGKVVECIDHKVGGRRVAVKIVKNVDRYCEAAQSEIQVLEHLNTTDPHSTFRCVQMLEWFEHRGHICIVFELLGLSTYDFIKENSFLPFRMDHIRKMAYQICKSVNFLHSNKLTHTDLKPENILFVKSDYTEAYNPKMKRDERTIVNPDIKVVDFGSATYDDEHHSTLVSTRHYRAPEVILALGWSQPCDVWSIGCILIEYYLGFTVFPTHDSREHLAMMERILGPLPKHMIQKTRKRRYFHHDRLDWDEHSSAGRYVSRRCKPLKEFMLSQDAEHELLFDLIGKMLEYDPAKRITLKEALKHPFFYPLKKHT
# T5 sequence (P11309 whole entry): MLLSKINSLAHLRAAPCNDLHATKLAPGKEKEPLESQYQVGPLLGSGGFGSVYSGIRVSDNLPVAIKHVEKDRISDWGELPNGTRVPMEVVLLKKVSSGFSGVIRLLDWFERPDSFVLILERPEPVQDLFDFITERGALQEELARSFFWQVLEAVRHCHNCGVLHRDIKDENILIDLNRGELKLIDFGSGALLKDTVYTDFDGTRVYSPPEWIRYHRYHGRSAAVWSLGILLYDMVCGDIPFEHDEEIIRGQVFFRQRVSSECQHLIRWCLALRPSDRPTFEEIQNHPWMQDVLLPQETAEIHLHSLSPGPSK
# T8 sequence (P49841 whole entry): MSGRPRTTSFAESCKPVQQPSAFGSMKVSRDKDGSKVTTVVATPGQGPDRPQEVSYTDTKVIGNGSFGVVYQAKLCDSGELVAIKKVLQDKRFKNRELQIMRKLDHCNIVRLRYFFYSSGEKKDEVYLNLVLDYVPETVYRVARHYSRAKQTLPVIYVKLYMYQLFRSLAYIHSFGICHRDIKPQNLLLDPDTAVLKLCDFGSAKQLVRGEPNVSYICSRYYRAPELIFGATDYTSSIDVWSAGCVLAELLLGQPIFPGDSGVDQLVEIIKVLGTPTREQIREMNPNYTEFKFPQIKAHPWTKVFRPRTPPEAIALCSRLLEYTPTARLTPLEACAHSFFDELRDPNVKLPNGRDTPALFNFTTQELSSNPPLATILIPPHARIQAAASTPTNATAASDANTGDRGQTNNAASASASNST
# T3 sequence (Q00535 whole entry): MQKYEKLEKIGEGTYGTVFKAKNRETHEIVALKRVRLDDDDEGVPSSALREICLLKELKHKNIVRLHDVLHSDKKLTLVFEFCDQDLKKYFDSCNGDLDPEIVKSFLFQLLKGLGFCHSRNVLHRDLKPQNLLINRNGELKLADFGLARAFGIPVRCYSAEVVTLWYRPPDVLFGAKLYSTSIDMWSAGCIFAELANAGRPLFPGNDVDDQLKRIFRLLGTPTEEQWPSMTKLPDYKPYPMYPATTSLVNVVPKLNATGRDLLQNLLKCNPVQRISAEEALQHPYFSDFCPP
# T3 sequence (Q15078 99-307 partner limits assumed): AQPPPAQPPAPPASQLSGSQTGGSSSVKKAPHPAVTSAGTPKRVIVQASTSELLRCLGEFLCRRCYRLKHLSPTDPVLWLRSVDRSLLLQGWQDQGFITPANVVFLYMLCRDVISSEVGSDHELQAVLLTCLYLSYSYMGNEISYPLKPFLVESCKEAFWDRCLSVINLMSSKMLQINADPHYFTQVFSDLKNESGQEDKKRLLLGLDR
# T4 sequence (P50750 whole entry): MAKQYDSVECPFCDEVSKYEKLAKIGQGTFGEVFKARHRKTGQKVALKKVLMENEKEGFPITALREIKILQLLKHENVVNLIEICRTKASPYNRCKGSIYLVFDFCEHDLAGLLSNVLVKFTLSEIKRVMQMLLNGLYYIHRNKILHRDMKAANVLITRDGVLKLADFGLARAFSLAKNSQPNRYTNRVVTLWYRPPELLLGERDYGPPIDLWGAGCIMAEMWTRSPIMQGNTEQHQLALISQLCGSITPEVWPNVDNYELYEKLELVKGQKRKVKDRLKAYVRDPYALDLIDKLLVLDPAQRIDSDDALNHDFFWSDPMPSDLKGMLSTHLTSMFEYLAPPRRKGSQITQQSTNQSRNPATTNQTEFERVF
# T4 sequence (O60563 whole entry partner): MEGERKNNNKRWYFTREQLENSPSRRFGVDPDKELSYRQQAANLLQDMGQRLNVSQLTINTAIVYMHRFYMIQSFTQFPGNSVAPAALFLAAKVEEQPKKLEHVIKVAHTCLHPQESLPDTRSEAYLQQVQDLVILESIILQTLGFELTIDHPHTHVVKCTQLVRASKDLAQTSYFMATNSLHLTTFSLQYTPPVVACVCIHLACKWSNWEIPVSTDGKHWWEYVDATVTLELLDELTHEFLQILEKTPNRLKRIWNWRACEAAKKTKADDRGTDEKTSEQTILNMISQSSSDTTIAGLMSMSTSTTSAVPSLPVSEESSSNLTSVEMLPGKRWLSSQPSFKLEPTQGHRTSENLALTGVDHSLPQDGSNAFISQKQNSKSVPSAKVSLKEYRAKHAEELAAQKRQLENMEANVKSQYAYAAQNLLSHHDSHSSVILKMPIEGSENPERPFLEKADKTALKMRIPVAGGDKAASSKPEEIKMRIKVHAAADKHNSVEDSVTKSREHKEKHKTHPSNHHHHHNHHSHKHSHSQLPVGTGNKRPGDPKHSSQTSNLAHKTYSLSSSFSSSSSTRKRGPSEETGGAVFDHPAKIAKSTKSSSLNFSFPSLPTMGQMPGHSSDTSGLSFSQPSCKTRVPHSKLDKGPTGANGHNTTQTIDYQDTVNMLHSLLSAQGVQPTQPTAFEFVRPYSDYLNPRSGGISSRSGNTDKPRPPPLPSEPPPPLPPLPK
# T9 sequence (P49674 whole entry): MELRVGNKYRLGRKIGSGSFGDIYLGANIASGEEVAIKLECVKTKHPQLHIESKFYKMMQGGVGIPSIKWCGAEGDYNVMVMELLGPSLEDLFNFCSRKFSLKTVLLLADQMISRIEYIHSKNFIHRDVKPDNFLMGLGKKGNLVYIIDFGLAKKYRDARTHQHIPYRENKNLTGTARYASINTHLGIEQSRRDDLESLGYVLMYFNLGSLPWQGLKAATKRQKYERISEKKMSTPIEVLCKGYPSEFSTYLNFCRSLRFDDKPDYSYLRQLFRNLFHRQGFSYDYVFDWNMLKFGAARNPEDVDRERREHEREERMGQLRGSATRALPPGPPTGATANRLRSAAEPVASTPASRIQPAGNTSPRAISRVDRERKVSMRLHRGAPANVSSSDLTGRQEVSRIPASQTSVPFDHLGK
Compound,remaining activity at 1 µM (HsDYRK1A) [%],remaining activity at 10 µM (HsDYRK1A) [%],remaining activity at 1 µM (MmCLK1) [%],remaining activity at 10 µM (MmCLK1) [%],remaining activity at 1 µM (Hs_CDK5/p25) [%],remaining activity at 10 µM (Hs_CDK5/p25) [%],remaining activity at 1 µM (Hs_CDK9/CyclinT) [%],remaining activity at 10 µM (Hs_CDK9/CyclinT) [%],remaining activity at 1 µM (Hs_PIM1) [%],remaining activity at 10 µM (Hs_PIM1) [%],remaining activity at 1 µM (Rn_DYRK1A) [%],remaining activity at 10 µM (Rn_DYRK1A) [%],remaining activity at 1 µM (Hs_HASPIN) [%],remaining activity at 10 µM (Hs_HASPIN) [%],remaining activity at 1 µM (Hs_GSK3β) [%],remaining activity at 10 µM (Hs_GSK3β) [%],remaining activity at 1 µM (Hs_CK1ε) [%],remaining activity at 10 µM (Hs_CK1ε) [%],IC50 at 48 h [1] [µM],IC50 at 48 h [2] [µM],other results
"O=[N+]([O-])c1cc(O)ccc1-n1cc(COc2cccc3cnc(Nc4cccc(Cl)c4)nc23)nn1 [12c, N-(3-Chlorophenyl)-8-((1-(4-hydroxy-2-nitrophenyl)-1H-1,2,3-triazol-4-yl)methoxy)quinazolin-2-amine]",≥ 100,60,36,20,71,30,58,39,59,68,81,45,83,88,89,60,94,81,5,24,"IC50 (MmCLK1): 0.177 µM; IC50 at 48 h [3]: 19 µM; IC50 at 48 h [4, 7]: 1.3 µM; IC50 at 48 h [4, 8]: 4 µM; IC50 at 48 h [5]: 9 µM; IC50 at 48 h [6]: 6 µM; toxicity towards fibroblasts (Human skin fibroblasts): moderate toxicity"
"N[C@H]1CC[C@H](n2cc(COc3cccc4cnc(Nc5cccc(Cl)c5)nc34)nn2)CC1 [19a, 8-((1-((trans)-4-Aminocyclohexyl)-1H-1,2,3-triazol-4-yl)methoxy)-N-(3-chlorophenyl)quinazolin-2-amine hydrochloride]",84,34,20,10,≥ 100,30,65,30,62,40,78,64,70,92,50,23,73,22,8,11,"IC50 (HsDYRK1A): 3.72 µM; IC50 (MmCLK1): 0.2 µM; IC50 at 48 h [3]: 6 µM; IC50 at 48 h [4, 7]: 7 µM; IC50 at 48 h [4, 8]: 7 µM; IC50 at 48 h [5]: 11 µM; IC50 at 48 h [6]: 1.3 µM"
"N[C@H]1CC[C@@H](n2cc(COc3cccc4cnc(Nc5cccc(Cl)c5)nc34)nn2)CC1 [16a, 8-((1-((cis)-4-Aminocyclohexyl)-1H-1,2,3-triazol-4-yl)methoxy)-N-(3-chlorophenyl)quinazolin-2-amine hydrochloride]",84,36,17,8,75,36,68,12,54,14,82,33,72,31,32,49,87,21,8,9,"IC50 (HsDYRK1A): 2.76 µM; IC50 (MmCLK1): 0.22 µM; IC50 at 48 h [3]: 9 µM; IC50 at 48 h [4, 7]: 10 µM; IC50 at 48 h [4, 8]: 9 µM; IC50 at 48 h [5]: 8 µM; IC50 at 48 h [6]: 9 µM"
"CC(C)(C)OC(=O)N[C@H]1CC[C@H](n2cc(COc3cccc4cnc(Nc5cc(Cl)cc(Cl)c5)nc34)nn2)CC1 [18b, tert-Butyl ((trans)-4-(4-(((2-((3,5-dichlorophenyl)amino)quinazolin-8-yl)oxy)methyl)-1H-1,2,3-triazol-1-yl)cyclohexyl)carbamate]",≥ 100,85,86,72,85,81,98,83,94,68,≥ 100,≥ 100,72,53,75,35,≥ 100,92,10,> 25,"IC50 at 48 h [3]: > 25 µM; IC50 at 48 h [4, 7]: > 25 µM; IC50 at 48 h [4, 8]: > 25 µM; IC50 at 48 h [5]: > 25 µM; IC50 at 48 h [6]: > 25 µM"
